# In PMC12339163, “Combining Plant Bioactives With Antibiotics for Enhanced Antibiofilm Activity Against Uropathogenic Staphylococcus spp. and Cytotoxicity Evaluation” (Advances in Pharmacological and Pharmaceutical Sciences, 2025):
# Legend:
# Assay type in all cases: cell-based
# [1] = system: Staphylococcus epidermidis biofilm; assay: Checkerboard combination assay, biofilm eradication; settings: S. epidermidis biofilm eradication; natural product alone; mean MBEC
# Method: (§1) The effect of the combination of ATBs with NPs on the preformed biofilm was evaluated by determining the FICI, as described above for biofilm formation, with slight modifications. After biofilm formation for 24 h, the plate was gently emptied and washed three times with PBS. Then, 50 µL of ATBs and 50 µL of NPs were introduced to the plate. The final concentration ranges from 0.0625 to 128 µg/mL and from 4 to 512 µg/mL for ATBs and NPs, respectively, and is incubated at 37°C for 24 h. After incubation, the medium was gently removed, and the plate was washed three times with PBS. At the end of the incubation time, the MTT reduction assay was performed, and the MBEC was determined. To assess the effect of the combination, the FICI was calculated and interpreted as described above.
# [2] = system: Staphylococcus saprophyticus biofilm; assay: as above; settings: S. saprophyticus biofilm eradication; natural product alone; mean MBEC
# Method: as §1
# [3] = system: UROtsa urinary epithelial cells; assay: Cytotoxicity, MTT assay; settings: Epithelial cell, 48 h, read-out: IC50
# Method: (§2) Two cell lines, including Raw 264.7 macrophages and the urinary epithelial cell line UROtsa obtained from the American Type Culture Collection (Rockville, MD, USA), were used. They were cultured in Dulbecco's modified Eagle's medium (DMEM), which was supplemented with 10% fetal bovine serum (FBS) and 1% penicillin, streptomycin, and fungizone (PSF). They were then grown at 37°C in a humidified environment containing 5% CO2.
# (§3) The cytotoxicity of the selected synergistic combinations, as well as the individual constituents of combinations, against the abovementioned cell lines was performed by the MTT assay as previously described. Briefly, cells from each line were harvested in the logarithmic phase using trypsin (0.05% trypsin, 0.02% EDTA in PBS). Cell suspension was diluted with an appropriate growth medium to obtain a cell density of 10^4 cells/well. A 100 µL aliquot of each suspension was seeded into 96-well cell culture plates and incubated at 37°C in an atmosphere of 5% CO2 and 95% relative humidity. After 24 h of incubation, 100 µL of samples (ATBs and NPs) at concentrations varying from 0.01, 0.1, 1, 10, 100, and 1000, as well as the synergistic combinations (C1 to C5), was added to the wells containing the cells. Doxorubicin was used as a positive control. Appropriate controls with an equivalent concentration of DMSO were also included. Plates were incubated for 48 h, then the medium in each well was aspirated, and MTT solution (2 mg/mL in PBS) was diluted 1:10 with fresh medium and added to each well, and the plates were further incubated at 37°C for 4 h. Absorbance was measured on a BioTek microplate reader at 570 nm. The percentage of cell viability was calculated by comparing treated and untreated cells using the equation [39]:(3) cell viability %=ODtest/ODcontrol×100.
# (§4) Then, the IC50 values of the samples having shown at least 50% inhibition were calculated by plotting the percentage of inhibition against the concentrations.
# Raw 264.7 macrophages = assay: Cytotoxicity, MTT assay; settings: Mus musculus, RAW264.7, 48 h, Raw 264.7, MTT, read-out: IC50
# Method: as §2, §3, §4
Compound,MBEC Alone NPs [1] [µg/mL],MBEC Alone NPs [2] [µg/mL],IC50 [3] [µg/mL],IC50 (Raw 264.7 macrophages) [µg/mL]
O=c1c(O)c(-c2ccc(O)c(O)c2)oc2cc(O)cc(O)c12 [Quer],170.66,256,–,–
"COc1cccc2c1C(=O)c1c(O)c3c(c(O)c1C2=O)C[C@@](O)(C(=O)CO)C[C@@H]3O[C@H]1C[C@H](N)[C@H](O)[C@H](C)O1 [Doxorubicin, doxorubicin]",–,–,1.58,1.26
